The NIST ThermoML archive (doi:10.1016/j.jct.2016.09.007)

Assay: xn = mol fraction of the nth substance listed
Conditions: 93.2 kPa, Liquid; for speed of sound: Frequency=3 MHz, Sing-around technique in a fixed-path interferometer; for mass density: Vibrating tube method

CCCC(=O)[O-].CCCC[NH3+] [n-butylammonium butanoate] + CO
Conditions	mass density, 293.15 K [kg/m3]	mass density, 298.15 K [kg/m3]	mass density, 303.15 K [kg/m3]	mass density, 308.15 K [kg/m3]	mass density, 313.15 K [kg/m3]	speed of sound, 293.15 K [m/s]	speed of sound, 298.15 K [m/s]	speed of sound, 303.15 K [m/s]	speed of sound, 308.15 K [m/s]	speed of sound, 313.15 K [m/s]
x1 = 0.0503	827.536	823.196	818.837	814.456	810.048	1187.9	1171.5	1155.3	1139.3	1123.3
x1 = 0.0999	850.303	846.198	842.076	837.934	833.767	1233.9	1217.6	1201.5	1185.5	1169.7
x1 = 0.1491	866.376	862.414	858.459	854.49	850.482	1268.2	1251.9	1235.9	1219.9	1204.1
x1 = 0.2011	878.773	874.958	871.116	867.265	863.431	1295.6	1279.4	1263.3	1247.4	1231.6
x1 = 0.2525	888.142	884.423	880.696	876.953	873.199	1316.7	1300.5	1284.4	1268.5	1252.7
x1 = 0.3057	895.564	891.923	888.274	884.609	880.93	1333.9	1317.8	1301.7	1285.8	1270
x1 = 0.3476	900.631	896.968	893.253	889.68	886.019	1345.6	1329.3	1313.2	1297.2	1281.4
x1 = 0.3966	905.316	901.759	898.192	894.632	891.1	1356.4	1340.1	1324	1308	1292.1
x1 = 0.4491	909.413	905.905	902.401	898.901	895.415	1366.1	1349.7	1333.5	1317.5	1301.7
x1 = 0.501	912.93	909.441	905.946	902.476	899.051	1374.4	1358	1341.8	1325.7	1310
x1 = 0.541	915.316	911.864	908.414	904.968	901.531	1380.2	1363.7	1347.4	1331.3	1315.4
x1 = 0.5913	917.715	914.276	910.846	907.442	904.079	1386	1369.4	1353.1	1336.9	1321
x1 = 0.6445	920.109	916.724	913.329	909.923	906.495	1391.7	1374.9	1358.5	1342.3	1326.3
x1 = 0.6895	921.905	918.523	915.128	911.737	908.371	1396.6	1379.8	1363.2	1346.9	1330.8
x1 = 0.7391	923.626	920.287	916.93	913.559	910.183	1401.3	1384.2	1367.4	1350.9	1334.8
x1 = 0.8007	925.47	922.166	918.855	915.534	912.194	1407.1	1389.5	1372.5	1355.8	1339.5
x1 = 0.8243	926.211	922.909	919.611	916.299	912.971	1409.6	1391.8	1374.6	1357.8	1341.4
x1 = 0.8973	927.898	924.584	921.292	918.007	914.707	1416.7	1398	1380.2	1362.9	1346.2
x1 = 0.932	928.804	925.491	922.195	918.913	915.625	1420.3	1401.2	1383	1365.5	1348.5
x1 = 1	928.794	925.509	922.217	918.88	915.567	1431.5	1410.3	1390.4	1371.5	1353.6
